Reference: PubChem BioAssay AID1963962 (Molecular Pharmacology Branch, DTP, NCI, 2024)

System: 967376-340-R-J2-PDC multicell spheroid viability
Assay: Anticancer human tumor 967376-340-R-J2-PDC patient-derived colon adenocarcinoma cell line growth inhibition [PI3K]
Conditions: for IC50: curve of first compound; for viability, T/C: stronger effect = lower value
Summary of the method: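 Tumor cells grown as multi-cell spheroids with HUVEC endothelial cells and MSC fibroblast-like stroma were treated with targeted agents combined with inavolisib, alpelisib, duvelisib or copanlisib. Doses fell in half-log steps from near clinical Cmax, else from 10 microM. Viability was measured.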
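Note: spheroids exposed to agents for 7 days before read-out.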
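Throughout, for viability, T/C: luminescence used as surrogate of cell viability.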

Compound `CC(C)n1nc(-c2ccc3oc(N)nc3c2)c2c(N)ncnc21` + CC(Nc1ncnc2nc[nH]c12)c1cc2cccc(Cl)c2c(=O)n1-c1ccccc1 has an IC50 (second compound 0.0316 µM) of over 100 nM, an IC50 (second compound 0.1 µM) of over 100 nM and an IC50 (second compound 0.316 µM) of over 100 nM. It also gave an IC50 (second compound 1 µM) of over 100 nM, an IC50 (second compound 3.16 µM) of over 100 nM and an IC50 (second compound 10 µM) of over 100 nM. For the same compound, the viability, T/C (second compound 0.0316 µM, first compound 0.000316 µM) was 109%, the viability, T/C (second compound 0.0316 µM, first compound 0.001 µM) was 92.2% and the viability, T/C (second compound 0.0316 µM, first compound 0.00316 µM) was 96.6%. It also gave a viability, T/C (second compound 0.0316 µM, first compound 0.01 µM) of 98.6%, a viability, T/C (second compound 0.0316 µM, first compound 0.0316 µM) of 97.5% and a viability, T/C (second compound 0.0316 µM, first compound 0.1 µM) of 59.1%. For the same compound, the viability, T/C (second compound 0.1 µM, first compound 0.000316 µM) was 90.1%, the viability, T/C (second compound 0.1 µM, first compound 0.001 µM) was 94.5% and the viability, T/C (second compound 0.1 µM, first compound 0.00316 µM) was 90.6%. It also gave a viability, T/C (second compound 0.1 µM, first compound 0.01 µM) of 103%, a viability, T/C (second compound 0.1 µM, first compound 0.0316 µM) of 80.8% and a viability, T/C (second compound 0.1 µM, first compound 0.1 µM) of 69.9%. For the same compound, the viability, T/C (second compound 0.316 µM, first compound 0.000316 µM) was 113%, the viability, T/C (second compound 0.316 µM, first compound 0.001 µM) was 104% and the viability, T/C (second compound 0.316 µM, first compound 0.00316 µM) was 99.9%. It also gave a viability, T/C (second compound 0.316 µM, first compound 0.01 µM) of 98.5%, a viability, T/C (second compound 0.316 µM, first compound 0.0316 µM) of 77% and a viability, T/C (second compound 0.316 µM, first compound 0.1 µM) of 54.7%. It also gave a viability, T/C (second compound 1 µM, first compound 0.000316 µM) of 124%, a viability, T/C (second compound 1 µM, first compound 0.001 µM) of 97% and a viability, T/C (second compound 1 µM, first compound 0.00316 µM) of 89.9%. The viability, T/C (second compound 1 µM, first compound 0.01 µM) was 90.1%, the viability, T/C (second compound 1 µM, first compound 0.0316 µM) was 71% and the viability, T/C (second compound 1 µM, first compound 0.1 µM) was 53%. The viability, T/C (second compound 3.16 µM, first compound 0.000316 µM) was 101%, the viability, T/C (second compound 3.16 µM, first compound 0.001 µM) was 94.3% and the viability, T/C (second compound 3.16 µM, first compound 0.00316 µM) was 93.9%. It also gave a viability, T/C (second compound 3.16 µM, first compound 0.01 µM) of 80.4%, a viability, T/C (second compound 3.16 µM, first compound 0.0316 µM) of 81.3% and a viability, T/C (second compound 3.16 µM, first compound 0.1 µM) of 62.2%. It also gave a viability, T/C (second compound 10 µM, first compound 0.000316 µM) of 93%, a viability, T/C (second compound 10 µM, first compound 0.001 µM) of 81.4% and a viability, T/C (second compound 10 µM, first compound 0.00316 µM) of 76.7%. For the same compound, the viability, T/C (second compound 10 µM, first compound 0.01 µM) was 88%, the viability, T/C (second compound 10 µM, first compound 0.0316 µM) was 73.3% and the viability, T/C (second compound 10 µM, first compound 0.1 µM) was 61.3%.
